According to patent US4594246A, “Pharmaceutically-acceptable amine salts of 6-β-halopenicillanic acids” (Leo Pharmaceutical Products, priority 1979, dated 1986):
≈ marks a conversion by molar mass, not a printed value. Read-outs that look alike come from different tables or passages of the source.

What was measured:
[1] = system: Staphylococcus aureus CJ9; assay: Susceptibility of β-lactamase producing bacterial strains to β-lactam antibiotics in 1:1 combination (Table II); assay type: cell-based
[2] = system: Proteus mirabilis HJ28; assay: as above; assay type: cell-based
[3] = system: Escherischia coli HA58 (RTEM); assay: organism not typed; assay type: cell-based
[4] = system: Klebsiella pneumoniae HE7; assay: Susceptibility of β-lactamase producing bacterial strains to β-lactam antibiotics in 1:1 combination (Table II); assay type: cell-based
[5] = system: Staphylococcus aureus CJ145; assay: as above; assay type: cell-based
[6] = system: β-lactamases; details: well known; cited from earlier work
[7] = as such or as hydrochloride; cited from earlier work
[8] = serial dilution in agar medium, inoculum 10^5 CFU, alone or in 1:1 combination (value of each partner), read-out: IC50
[9] = serial dilution in agar medium, inoculum 10^4 CFU, alone or in 1:1 combination (value of each partner), read-out: IC50

Row | SMILES | MIC [1, 8] | minimum inhibitory concentration (MIC) [2, 9] | minimum inhibitory concentration (MIC) [3] | IC50 [4, 9] | IC50 [5, 8] | MIC [1] | sensitivity to β-lactamases [6] | minimum inhibitory concentration (MIC) [2] | IC50 [4] | IC50 [5] | concentration of benzylpenicillin in the udder [7] | effect in the treatment of mastitis [7]
1 | CC1(C)S[C@@H]2[C@H](NC(=O)[C@H](N)c3ccccc3)C(=O)N2[C@H]1C(=O)O [Ampicillin] | 10 µg/mL | > 50 µg/mL | > 100 µg/mL | > 50 µg/mL | 1.6 µg/mL |  |  |  |  |  |  | 
2 | CC1(C)S[C@@H]2[C@H](NC(=O)Cc3ccccc3)C(=O)N2[C@H]1C(=O)O [Benzylpenicillin] |  |  | > 100 µg/mL |  |  | > 100 µg/mL | very sensitive to β-lactamases | > 100 µg/mL | > 100 µg/mL | 10 µg/mL |  | 
3 | CC1(C)S[C@@H]2[C@H](/N=C/N3CCCCCC3)C(=O)N2[C@H]1C(=O)O [Mecillinam] | > 50 µg/mL | 6.3 µg/mL | 1.3 µg/mL (≈ 3.99 µM) | > 25 µg/mL | > 50 µg/mL |  |  |  |  |  |  | 
4 | CCN(CC)CCOC(=O)[C@@H]1N2C(=O)[C@@H](NC(=O)Cc3ccccc3)[C@H]2SC1(C)C [Penethamate] |  |  |  |  |  |  |  |  |  |  | rapid and high concentration of benzylpenicillin in the udder | very effective in the treatment of mastitis
